From patent publication US12486218B2, “Compounds advantageous in the treatment of central nervous system diseases and disorders” (AurimMed Pharma, Inc., priority 2008, dated 2025)

How the values were obtained:
mice [1] = test: Maximal Electroshock Seizure (MES) test, mice i.p.; assay type: in vivo; settings: for activity in the MES test: mice; for MES, fraction of animals: mice i.p.
mice [2] = test: 6 Hz (minimal clonic seizure) model, mice i.p.; assay type: in vivo; settings: for 6 Hz (32 mA), fraction of animals: mice i.p.; for activity in the 6 Hz (minimal clonic seizure) model: mice
[3] = system: rat dopaminergic N27 cells; test: N27 protection assay against oxidative stress (H2O2 or MPP+; MTT and LDH); assay type: cell-based; settings: drug 24 hours before 200 μM H2O2 or 640 μM MPP+
Source text: FIGS. 20A-25D data are shown illustrating neuroprotective and neuroregenerative effects observed in rat dopaminergic N27 cells. Rat dopaminergic N27 cells are commonly used in in vitro and in vivo model systems for studying Parkinson's disease. Parkinson's disease is a neurodegenerative disorder of the central nervous system that affects more than 6 million people worldwide. The motor symptoms of Parkinson's disease result from the death of dopamine generating cells in the substantia nigra, a region of the midbrain.
The N27 rat dopaminergic neuron cell line was harvested from E12 rat mesencephalic tissue and was transfected with SV40 to immortalize the cell line. The N27 cell line, when injected into the striata of 6-hydroxydopamine-lesioned rats (an animal model of PD) caused a time-dependent improvement in neurological deficits. This immortalized cell line has been carefully characterized in studies of dopamine biosynthesis, neurotoxicity and used as a dopaminergic neuron model studies.
The N27 in vitro Parkinson's disease model included a test of cell viability and cell toxicity in response to exposure to oxidative stress (e.g., either 200 μM H2O2 or 640 μM MPP+).
Cell viability was tested using the MTT assay. The MTT assay is a colorimetric analysis based on the activities of mitochondrial NAD(P)H-dependent cellular oxidoreductase enzymes. These enzymes are capable of reducing the tetrazolium dye, MTT [3-(4,5-dimethylthiazol-2-yl)-2,5-diphenyltetrazolium] bromide, to an insoluble formazan (purple). […] More viable cells equal more accumulation of the insoluble formazan dye.
Cell toxicity was tested using the […] (LDH) assay. Cells that are stressed secrete LDH. In general, the more cells are stressed, the LDH they secrete into their media. The LDH assay is a reliable colorimetric assay to measure quantitatively the […] (LDH) that is released into the cell culture media from damaged cells as a biomarker for cytotoxicity and cytolysis.
FIGS. 20A-25D present data from two types of assays: protection and recovery assays. In the protection assays, the drug candidate was applied to the cells at various concentrations for 24 hours, followed by the exposure to oxidative stress (either 200 μM H2O2 or 640 μM MPP+) for measuring neuroprotective effect. H2O2 provides a broad measure of oxidative stress, while MPP+ gives a more specific oxidative stress to dopaminergic neurons.
The protection assay results are shown in panels A-C of FIGS. 20-25 In the recovery assays, the cells were first damaged by exposure to H2O2 and then various concentrations of the drug were applied to the cells. The results for the recovery assays are shown the D panels of FIGS. 20-25.

SMN2 promoter = SMN2 promoter β-lactamase reporter assay in NSC34 motor neuron-like cells; assay type: cell-based; settings: for Promoter (SMN2 promoter test, summary YES/NO): Table 13 summary; for SMN2 promoter activity: treatment for 19 hours at a concentration of 1 μM
Description: FIG. 30 illustrates a screen for SMN2 expression of a number of compounds described herein.
SMN2 promoter activity was measured using NSC34 motor neuron-like cells stably transfected with a β-lactamase (BLA) reporter gene under the control of a 3.4-kilobase fragment of the SMN2 promoter. D156844 was used as a positive control for this assay.

mice [4] = test: Subcutaneous Metrazol Seizure threshold (s.c. MET) test, mice i.p.; assay type: in vivo; settings: for activity in the s.c. MET test: mice, at 300 mg/kg; for s.c. MET, fraction of animals: mice i.p.
mice [5] = test: Minimal motor impairment (MID50), mice i.p.; settings: mice i.p.
Description: The animal testing was performed according to methods known in the relevant art.

rats = test: Pilocarpine-induced Status Epilepticus in Rats (prevention; intervention @ 30 min)
Description: The animal testing was performed using the protocols developed in the Anticonvulsant Screening Program (ASP) at the National Institute of Neurological Disorders and Stroke (NINDS), National Institutes of Health (NIH).

[6] = system: inclusion of exon 7 in SMN2 mRNAs; test: Exon 7 inclusion BLA reporter assay in NSC34 cell line; assay type: cell-based
Source text: To measure changes in the inclusion of exon 7 in SMN2 mRNAs, another NSC34 cell line was used that stably transfected with a reporter construct which expresses BLA when exon 7 is included in the SMN2 minigene mRNAs. 5-(N-ethyl-N-isopropyl)-amiloride (EIPA) was used as a positive control for this assay. Data for tis assay is illustrated in FIG. 30.

[7] = NSC34 exon 7 BLA reporter cells

`COc1ccc2cc(C(C)CC(N)=O)ccc2c1` (stereo not drawn) [Compound AE, 3-(6-Methoxynaphthalen-2-yl)-butyramide] was tested, and the “activity in the MES test” value (mice [1]; at 100 mg/kg) was “activity”, the “6 Hz (32 mA), fraction of animals” value (mice [2]; 200 mg/kg @ 0.25 hr) was 2/4 @ 0.25 hrs and the “activity in the 6 Hz (minimal clonic seizure) model” value (from here on “activity in the 6 Hz”) (mice [2]; at 200 mg/kg) was “activity”. The “neuroprotective effect against H2O2 and MPP+ oxidative stresses (MTT and LDH assays)” value (shortened to “neuroprotective effect”) [3] was “statistically significant, dose-dependent neuroprotection”.

With `Cc1nc(C)c(C(C)CC(N)=O)cc1C(C)CC(N)=O` (mixture of isomers) [DA] the “neuroprotective effect” value [3] was “statistically significant, dose-dependent neuroprotection”, the “Promoter (SMN2 promoter test, summary YES/NO)” value (SMN2 promoter) was “YES” and the SMN2 promoter activity (SMN2 promoter) was “increased SMN2 promoter activity”.

`CC(CC(=O)N(C)C)c1ccc(OC(F)(F)F)cc1` (stereo not drawn) [BD, N,N-Dimethyl-3-(4-trifluoromethoxy-phenyl)-butyramide] was tested, and the “MES, fraction of animals” value (mice [1]; 100 mg/kg @ 0.5 hr) was 1/1 @, the “activity in the MES test” value (mice [1]; at 100 mg/kg) was “activity” and the “activity in the s.c. MET test” value (mice [4]) was “activity”. The “6 Hz (32 mA), fraction of animals” value (mice [2]; 100 mg/kg @ 2.0 hr) was 2/4 @ 0.5, and the “MID50, fraction of animals” value (mice [5]; 100 mg/kg @ 0.5 hr) was 4/8 @ 0.5 hrs,.

With `Cc1cc(C(CC(N)=O)C2CC2)ccc1F` (stereo not drawn) [AO, 3-Cyclopropyl-3-(4-fluoro-3-methylphenyl)-propionamide] the “MES, fraction of animals” value (mice [1]; 100 mg/kg @ 0.5 hr) was 1/3 @, the “activity in the MES test” value (mice [1]; at 100 mg/kg) was “activity” and the “activity in the s.c. MET test” value (mice [4]) was “activity”. For the same molecule, the “neuroprotective effect” value [3] was “statistically significant, dose-dependent neuroprotection”, the responders at 97 mg/kg (rats; Rattus norvegicus, 0.5 h, read-out: Intervention @ 30 min, Protection) was 50% and the responders at 65 mg/kg (rats; Rattus norvegicus, read-out: Prevention, Protection) was 86%.

With `CC(O)(CC(N)=O)c1cccc(OC(F)(F)F)c1` (racemic) [CD] the “s.c. MET, fraction of animals” value (mice [4]; 30 mg/kg @ 0.5 hr) was 3/5@ 0.50, the “s.c. MET, fraction of animals” value (mice [4]; 100 mg/kg @ 0.5 hr) was 1/1 @ 0.5, and the “s.c. MET, fraction of animals” value (mice [4]; 100 mg/kg @ 4.0 hr) was 1/1 @ 0.5,. The “MID50, fraction of animals” value (mice [5]; 100 mg/kg @ 0.5 hr) was 1/8 @ 0.50 hr,, the “MID50, fraction of animals” value (mice [5]; 300 mg/kg @ 0.5 hr) was 4/4 @ 0.5 and the “MID50, fraction of animals” value (mice [5]; 300 mg/kg @ 4.0 hr) was “hr & 2/2”.

With `CC(CC(N)=O)c1ccc(S(C)(=O)=O)cc1` (racemic) [AV] the “neuroprotective effect” value [3] was “statistically significant, dose-dependent neuroprotection” and the “Prevention, Protection” value (rats; rats, pilocarpine-induced status epilepticus, dose 600 mg/kg) was 25%.

In the case of `COc1ccc(C(CC(N)=O)C2CC2)cc1C` (stereo not drawn) [AN, 3-Cyclopropyl-3-(4-methoxy-3-methyl-phenyl)propionamide], the “MES, fraction of animals” value (mice [1]; 100 mg/kg @ 0.25 hr) is reported as 1/3 @, the “activity in the MES test” value (mice [1]; at 100 mg/kg) is reported as “activity” and the “6 Hz (32 mA), fraction of animals” value (mice [2]; 100 mg/kg @ 0.25 hr) is reported as 4/4. The “6 Hz (32 mA), fraction of animals” value (mice [2]; 100 mg/kg @ 0.5 hr) was 3/4, the “6 Hz (32 mA), fraction of animals” value (mice [2]; 100 mg/kg @ 1.0 hr) was 1/4 @ and the “activity in the 6 Hz” value (mice [2]; at 100 mg/kg) was “activity”. The “Promoter (SMN2 promoter test, summary YES/NO)” value (SMN2 promoter) was “YES”, the SMN2 promoter activity (SMN2 promoter) was “increased SMN2 promoter activity” and the “effect on the inclusion of exon 7 in SMN2 transcripts” value [6, 7] was “positive effect on the inclusion of exon 7”.

For `CC(CC(N)=O)c1ccc(-c2ccccc2)c(F)c1` (stereo not drawn) [Compound AX, 3-(2-Fluoro-biphenyl-4-yl)butyramide], the “6 Hz (32 mA), fraction of animals” value (mice [2]; 100 mg/kg @ 0.5 hr) was 3/4, the “6 Hz (32 mA), fraction of animals” value (mice [2]; 100 mg/kg @ 1.0 hr) was 2/4 and the “6 Hz (32 mA), fraction of animals” value (mice [2]; 100 mg/kg @ 2.0 hr) was 1/4 @. The “activity in the 6 Hz” value (mice [2]; at 100 mg/kg) was “activity”, the “SMN2 promoter assay, particularly strong hits” value (SMN2 promoter; NSC34 BLA reporter cells) was “particularly strong hits” and the “Promoter (SMN2 promoter test, summary YES/NO)” value (SMN2 promoter) was “YES”. The SMN2 promoter activity (SMN2 promoter) was “increased SMN2 promoter activity”, the “effect on the inclusion of exon 7 in SMN2 transcripts” value [6, 7] was “positive effect on the inclusion of exon 7” and the “exon 7 test, particularly strong hits” value [6, 7] was “Particularly strong hits”. For the same molecule, the “Exon 7 inclusion (summary YES/NO)” value ([6]; Table 13 summary) was “YES”.

For `CC(CC(=O)N(C)C)c1ccc2c(c1)OCO2` (stereo not drawn) [Compound N, N,N-dimethyl-3-(3,4-methylenedioxy-phenyl)butyramide], the “MES, fraction of animals” value (mice [1]; 100 mg/kg @ 0.5 hr) was 1/3 @0.5 hr,, the “activity in the MES test” value (mice [1]; at 300 mg/kg) was “activity” and the “neuroprotective effect” value [3] was “potent dose-dependent neuroprotective effects”.
